This note sets out measurements from patent publication US20060252698A1, “Compounds for inhibiting cathepsin activity” (priority 2005, published 2006).

T1 sequence (P07711 114-288 limits assumed): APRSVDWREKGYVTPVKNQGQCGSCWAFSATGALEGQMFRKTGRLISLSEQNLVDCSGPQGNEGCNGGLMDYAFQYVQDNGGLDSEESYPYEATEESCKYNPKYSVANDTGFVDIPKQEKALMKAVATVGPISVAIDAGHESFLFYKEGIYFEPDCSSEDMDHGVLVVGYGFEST
T1 sequence (P07711 292-333 limits assumed): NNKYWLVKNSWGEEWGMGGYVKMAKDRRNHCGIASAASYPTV

The experiment has as its target T1, Human Liver Cathepsin L (Homo sapiens, UniProt P07711).
T1 construct: purchased Calbiochem 219402
Put plainly: Cathepsin L inhibition assay (kinetic, Z-Phe-Arg-pNA substrate). The conditions noted are these: Z-Phe-Arg-pNA 120 μM, enzyme 12 nM, pH 5.5, read at 410 nm. The class given is biochemical. On the procedure:
Cathepsin Assay Protocols:
• 1. 96-well Round or V-bottom microplates for dilutions • 2. 96-well COSTAR UV microplates for assay (COSTAR cat.#3635) • 3. Bio-Spin 6 Chromatography Columns (BIO-RAD cat.#732-6002). • 4. 12-75 mm test tubes • 5. Falcon 50 ml tubes • 6. Falcon 14 ml tubes • 7. 1.5 ml eppendorf tube • 8. ≦10 ml buffer reservoir Reagents: • 1. Enzyme: Cathepsin G, M.W.23,500, 10 μM stock. • 2. Substrate:Suc-Ala-Ala-Pro-Phe-pNA, M.W. 624.65, prep. 100 mM [62.465 mg/ml] stock. • 3. Buffer: [50 mM HEPES, 500 mM NaCl, 5 μM EDTA, pH 7.14], 5 μM DTT Instrument Settings: SpectraMax Plus • 1. Kinetic assay reading@405 nm • 2. Read interval: 30 seconds • 3. Time: 1 hour • 4. OD Min: −0.001 • 5. OD Max: 0.5 • 6. Data Mode: Absorbance • 7. e405=194.078 μM/O.D. Procedure: • 1. Add 73 μl of buffer to all wells. • 2. Add […] of buffer to (−E) controls. • 3. Add 7 μl of sample and/or DMSO for controls to appropriate wells. • 4. Prep. substrate: 100 mM (62.465 mg/ml) stock in 100% DMSO. • 5. Dilute 1:20 in buffer. 75 μl in 1.425 ml. 5 mM final. • 6. Add 20 μl of 5 mM substrate to all wells. 500 μM final. • 7. Dilute enzyme (1:50) in buffer; Add 120 μl to 5,880 μl buffer. 2×[200 nM] final. • 8. Add 100 μl of 2× [200 nM] enzyme to assigned wells, except (−E) controls. [100 nM] final. • 11. Vortex 20 seconds. Read@ 405 nM every 30 seconds for 1 hour on SpectraMax Plus • Endpoint assay reading plate@ 600 nM. Used for the detection of precipitation. Cathepsin H: Materials: • 1. 96-well Round or V-bottom microplates for dilutions • 2. 96-well COSTAR UV microplates for assay (COSTAR cat.#3635) • 3. Bio-Spin 6 Chromatography Columns (BIO-RAD cat.#732-6002) • 4. 12-75 mm test tubes • 5. Falcon 50 ml tubes • 6. Falcon 14 ml tubes • 7. 1.5 ml eppendorf tube • 8. ≧10 ml buffer reservoir Reagents: • 1. Enzyme: Cathepsin H, M.W.28,000, 9.07 μM stock. • 2. Substrate:H-Arg-pNA, M.W. 367.2, prep. 50 mM [18.36 mg/ml] stock. • 3. Buffer: [100 mM NaP04, 1 mM EDTA, 1 mM DTT, pH 6.5 Instrument Settings: SpectraMax Plus • 1. Kinetic assay reading@410 nM • 2. Read interval: 30 seconds • 3. Time: 1 hour • 4. OD Min: −0.001 • 5. OD Max: 0.05 • 6. Data Mode: Absorbance • 7. e410=188.415 μM/O.D. Km=108±5 μM Procedure: • 1. Prep. substrate: 50 mM (18.36 mg/ml) stock in 100% DMSO. • 2. Add 73 μl of buffer to all wells. • 3. Add 7 μl of sample to appropriate wells: a.) 100% DMSO for (+E) & (−E) controls. • 4. Add 100 μl of buffer to (−E) controls. • 5. Dilute substrate (1:20) in buffer; Add 140 μl to 2.66 ml buffer while vortexing. [2.5 mM] final. • 6. Add 20 μl of substrate to all wells. Vortex 3-5 seconds. [250 μM] final. • 7. Dilute enzyme (1:64.8) in buffer; Add 179 μl to 11.418 ml buffer. 2× [140 nM] final. • 8. Add 100 μl of 2× [140 nM] enzyme to assigned wells, except (−E) controls. [70 nM] final. • 9. Read@410 nM every 30 seconds for 1 hour on SpectraMax Plus Cathepsin L: Materials: • 1. 96-well Round or V-bottom microplates for dilutions • 2. 96-well COSTAR UV microplates for assay (COSTAR cat.#3635) • 3. Falcon 50 ml tubes • 4. Falcon 14 ml tubes • 5. 1.5 ml eppendorf tube • 6. 10 ml buffer reservoir Reagents: • 1. Enzyme: Calbiochem #219402: Cathepsin L, M.W.29,000, 11.62 μM stock. Lot#B45683 • 2. Substrate: Bachem #L-1242: Z-Phe-Arg-pNA, M.W. 612.09, prep. 4.8 mM [2.938 mg/ml] stock in 100% DMSO. • 3. Buffer: [100 mM NaP04, 1 mM EDTA, pH 5.5] Supplement buffer w/1 mM DTT, day of assay. Experiment #1: • Instrument settings: SpectraMax Plus microtiter plate reader (Molecular Devices, Sunnydale, Calif.) • 1. Kinetic assay reading@410 nM • 2. Read interval: 30 seconds • 3. Time: 1 hour • 4. OD Min: −0.001 • 5. OD Max: 0.05 • 6. Data Mode: Absorbance • 7. ε410=161.311 μM/O.D. Km=56±8 μM Procedure: • 1. Add 88 μl of buffer to all wells. • 2. Add 7 μl of sample or 100% DMSO to appropriate wells. • 3. Add 100 μl of buffer to (−E) controls. • 5. Add 5 μ 4.8 mM] substrate to all wells. [120 μM] final. • 6. Vortex 3-5 seconds. • 7. Dilute enzyme (1:483.87) in buffer; Add 24.8 μl to 12,000 μl buffer. 2×[24 nM] final. • 8. […]
`CC1([C@H](NC(=O)NC2(CS(=O)(=O)C(C)(C)C)CCCCC2)C(=O)N2C[C@H]3[C@@H]([C@H]2C(=O)N[C@@H](CCC2CC2)C(=O)C(=O)NC2CC2)C3(C)C)CCCCC1`: the Ki was 12 nM. The value for `CC(C)(C)OC(=O)N[C@H](C(=O)N1CC2CCCC2[C@H]1C(=O)NC(CC1CC1)C(=O)C(N)=O)C1CCCCC1` (stereo partly drawn) was 14 nM.

On to `CCCC[C@H](NC(=O)[C@@H]1[C@@H]2[C@H](CN1C(=O)[C@@H](NC(=O)NC1([C@H]3CCCS3(=O)=O)CCCCC1)C1(C)CCCCC1)C2(C)C)C(=O)C(=O)NC1CC1`, for which the Ki was 20 nM.

For `CCCC(NC(=O)[C@H](CC(C)C)NC(=O)C(NC(=O)OC(C)(C)C)C(C)(C)C)C(=O)C(N)=O` (stereo partly drawn), the affinity corresponds to a Ki of 20 nM. The value for `CC(C)(C)OC(=O)N[C@H](C(=O)N1c2ccccc2C[C@H]1C(=O)NC(CC1CC1)C(=O)C(N)=O)C1CCCCC1` (stereo partly drawn) was 20 nM; that for `C=CCNC(=O)C(=O)C(CC1CC1)NC(=O)[C@@H]1[C@@H]2[C@H](CN1C(=O)[C@@H](NC(=O)N[C@H](CN1C(=O)CC(C)(C)CC1=O)C(C)(C)C)C(C)(C)O)C2(C)C` (stereo partly drawn) was 20 nM. In turn, `CC1([C@H](NC(=O)NC2(C3CCCS3(=O)=O)CCCCC2)C(=O)N2C[C@H]3[C@@H]([C@H]2C(=O)N[C@@H](CCC2CC2)C(=O)C(=O)NC2CC2)C3(C)C)CCCCC1` (stereo partly drawn) had a Ki of 24 nM. Molecule `CC(C)C[C@@H](C(=O)NC(CC1CC1)C(=O)C(N)=O)C1CCCCCC[C@H](NC(=O)OC(C)(C)C)C1=O` (stereo partly drawn) showed a Ki of 25 nM.

As for `CCC[C@H](NC(=O)[C@@H]1[C@@H]2[C@H](CN1C(=O)[C@@H](NC(=O)NC1([C@H]3CCCS3(=O)=O)CCCCC1)C1(C)CCCCC1)C2(C)C)C(=O)C(=O)NC1CC1`, the Ki was 31 nM.

On to `COc1ccc2c(O[C@@H]3C[C@H]4C(=O)N[C@]5(C(=O)O)CC5/C=C\CCCCC[C@H](NC(=O)OC5CCCC5)C(=O)N4C3)cc(-c3csc(NC(C)C)n3)nc2c1` (stereo partly drawn), for which the Ki was found to be 38 nM. The value for `CCCC[C@H](NC(=O)[C@@H]1[C@@H]2[C@H](CN1C(=O)[C@@H](NC(=O)NC1(CS(=O)(=O)C(C)C)CCCCC1)C(C)(C)C)C2(C)C)C(=O)C(=O)NC1CC1` was 38 nM; that for `CCCC[C@H](NC(=O)[C@@H]1[C@@H]2[C@H](CN1C(=O)[C@@H](NC(=O)NC1([C@H]3CCN(C)S3(=O)=O)CCCCC1)C(C)(C)C)C2(C)C)C(=O)C(=O)NC1CC1` was 40 nM. The value for `CC1(C)C2CN(C(=O)[C@@H](NC(=O)NC3CCCCC3)C(C)(C)C)[C@H](C(=O)NC(CC3CCC3)C(=O)C(N)=O)C21` (stereo partly drawn) was 63 nM.

As for `CC(C)(C)NC(=O)N[C@H](C(=O)N1C[C@H]2[C@@H]([C@H]1C(=O)NC(CC1CCC1)C(=O)C(N)=O)C2(C)C)C(C)(C)C` (stereo partly drawn), the affinity, expressed as Ki, was 76 nM. In the case of `CCCC[C@H](NC(=O)[C@@H]1[C@@H]2[C@H](CN1C(=O)[C@@H](NC(=O)NC1([C@H]3CCCS3(=O)=O)CCCCC1)C(C)(C)C)C2(C)C)C(=O)C(=O)NC1CC1` it was 80 nM. The value for `CCCC(NC(=O)[C@@H]1Cc2ccc3cc2CN1C(=O)[C@H](C1CCCCC1)NC(=O)CCCCCCO3)C(=O)C(N)=O` (stereo partly drawn) was 80 nM. With `CN(C)C(=O)[C@@H](NC(=O)CNC(=O)C(=O)C(CC1CC1)NC(=O)[C@@H]1[C@H]2CC(C)(C)O[C@H]2CN1C(=O)[C@@H](NC(=O)OC(C)(C)C)C1CCCCC1)c1ccccc1` (stereo partly drawn), the Ki came out at 97 nM. In the case of `CCC[C@H](NC(=O)[C@@H]1[C@H]2CCC[C@H]2CN1C(=O)[C@@H](NC(=O)[C@@H](NC(=O)c1cnccn1)C1CCCCC1)C(C)(C)C)C(=O)C(=O)NC1CC1` it was 104 nM. The value for `CC(C)C[C@@H](C(=O)NC(CC1CCC1)C(=O)C(N)=O)N1CCCCCC[C@H](NC(=O)N[C@@H](C(=O)OC(C)C)C(C)(C)C)C1=O` (stereo partly drawn) was 120 nM. In the case of `CC1C[C@H]2CN(C(=O)[C@@H](NC(=O)OC(C)(C)C)C3CCCCC3)[C@H](C(=O)NC(CC3CC3)C(=O)C(=O)NCC(=O)N[C@H](C(=O)N(C)C)c3ccccc3)[C@H]2C1` (stereo partly drawn) it was 120 nM; in that of `CN(C[C@@H](NC(=O)N[C@H](C(=O)N1C[C@H](OC(C)(C)C)C[C@H]1C(=O)NC(CC1CCC1)C(=O)C(N)=O)C1CCCCC1)C(C)(C)C)S(C)(=O)=O` (stereo partly drawn), 110 nM; in that of `C=CCNC(=O)C(=O)C(CCC)NC(=O)[C@@H]1[C@@H]2[C@H](CN1C(=O)[C@@H](NC(=O)N[C@H](CN1CCCCC1=O)C(C)(C)C)C1Cc3ccccc3C1)C2(C)C` (stereo partly drawn), 140 nM. `CCCNC(=O)C(=O)[C@@H]1CCCCCCCCC[C@H](NC(=O)NC2(CS(=O)(=O)C(C)(C)C)CCCCC2)C(=O)N2C[C@H]3[C@@H]([C@H]2C(=O)N1)C3(C)C` registered a Ki of 330 nM.

On to `C=CCNC(=O)C(=O)[C@@H]1CCCCCCCCC[C@H](NC(=O)N[C@H](CN(C)S(=O)(=O)N(C)C)C(C)(C)C)C(=O)N2C[C@H]3[C@@H]([C@H]2C(=O)N1)C3(C)C`, for which the Ki was determined as 370 nM. The value for `C=CCNC(=O)C(=O)C(CC1CC1)NC(=O)[C@@H]1[C@H]2C(c3ccccc3)[C@H]2CN1C(=O)[C@@H](NC(=O)NC1(CS(=O)(=O)C(C)(C)C)CCCCC1)C(C)(C)C` (stereo partly drawn) was 350 nM. The value for `CN(C[C@@H](NC(=O)N[C@H](C(=O)N1C[C@H]2[C@@H]([C@H]1C(=O)N[C@@H](CC(F)F)C(=O)N[C@@H]1C[C@@H]1c1ccccc1)C2(C)C)C(C)(C)C)C(C)(C)C)S(C)(=O)=O` was 530 nM; that for `CC1(C)CC(=O)N(C[C@@H](NC(=O)N[C@H]2CCCCCCCCC[C@@H](C(=O)C(=O)NC3CC3)NC(=O)[C@@H]3[C@@H]4[C@H](CN3C2=O)C4(C)C)C(C)(C)C)C(=O)C1` was 250 nM; that for `C=CCNC(=O)C(=O)[C@@H]1CCCCCCCCC[C@H](NC(=O)N[C@H](CN2CCC(C)(C)CC2=O)C(C)(C)C)C(=O)N2C[C@H]3[C@@H]([C@H]2C(=O)N1)C3(C)C` was 366 nM. The value for `C=CCNC(=O)C(=O)[C@@H]1CCCCCCCCC[C@H](NC(=O)NC2(CS(=O)(=O)C(C)(C)CC)CCCCC2)C(=O)N2C[C@H]3[C@@H]([C@H]2C(=O)N1)C3(C)C` was 230 nM; that for `CC1(C)[C@@H]2[C@H]3C(=O)N[C@H](C(=O)C(=O)NC4CC4)CCCCCCCCC[C@H](NC(=O)NC4(C5CCCS5(=O)=O)CCCCC4)C(=O)N3C[C@@H]21` (stereo partly drawn) was 110 nM.
